Data taken from PubChem BioAssay (NCI).
Several values for one entry are separate records, joined by “and”; a condition that tells them apart may be missing. Equal values may be shown once.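 All cell lines were grown in 96-well plates and treated with compound for 48 hours. GI50 marks 50% less growth. Definition used: TGI = concentration required for complete inhibition of growth.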

Legend:
Test in all cases: NCI-60 cell line screen, 48 h
MCF7 breast = test system: MCF7 breast
CAKI-1 renal = test system: CAKI-1 renal
SF-295 CNS = test system: SF-295 CNS
A498 renal = test system: A498 renal
UO-31 renal = test system: UO-31 renal
HT29 colon = test system: HT29 colon
TK-10 renal = test system: TK-10 renal
SK-MEL-5 melanoma = test system: SK-MEL-5 melanoma
NCI/ADR-RES ovarian = test system: NCI/ADR-RES ovarian
786-0 renal = test system: 786-0 renal
HCT-15 colon = test system: HCT-15 colon
NCI-H23 lung = test system: NCI-H23 lung
K-562 leukemia = test system: K-562 leukemia
U251 CNS = test system: U251 CNS
MOLT-4 leukemia = test system: MOLT-4 leukemia
HCT-116 colon = test system: HCT-116 colon
OVCAR-5 ovarian = test system: OVCAR-5 ovarian
OVCAR-8 ovarian = test system: OVCAR-8 ovarian
IGROV1 ovarian = test system: IGROV1 ovarian
KM12 colon = test system: KM12 colon
PC-3 prostate = test system: PC-3 prostate
UACC-257 melanoma = test system: UACC-257 melanoma
HCC-2998 colon = test system: HCC-2998 colon
HOP-92 NSCLC = test system: HOP-92 NSCLC
A549 NSCLC = test system: A549 NSCLC
RXF 393 renal = test system: RXF 393 renal
SK-MEL-2 melanoma = test system: SK-MEL-2 melanoma
HS 578T breast = test system: HS 578T breast
ACHN renal = test system: ACHN renal
SW-620 colon = test system: SW-620 colon
DU-145 prostate = test system: DU-145 prostate
CCRF-CEM leukemia = test system: CCRF-CEM leukemia
RPMI-8226 leukemia = test system: RPMI-8226 leukemia
SNB-19 CNS = test system: SNB-19 CNS
LOX IMVI melanoma = test system: LOX IMVI melanoma
OVCAR-4 ovarian = test system: OVCAR-4 ovarian
SF-268 CNS = test system: SF-268 CNS
SK-OV-3 ovarian = test system: SK-OV-3 ovarian
COLO 205 colon = test system: COLO 205 colon
EKVX NSCLC = test system: EKVX NSCLC
SNB-75 CNS = test system: SNB-75 CNS
SK-MEL-28 melanoma = test system: SK-MEL-28 melanoma
SR leukemia = test system: SR leukemia
SN12C renal = test system: SN12C renal
MDA-MB-435 = test system: MDA-MB-435
MDA-MB-231 breast = test system: MDA-MB-231 breast
SF-539 CNS = test system: SF-539 CNS
M14 melanoma = test system: M14 melanoma
HL-60(TB) leukemia = test system: HL-60(TB) leukemia
HOP-62 NSCLC = test system: HOP-62 NSCLC

CNCc1cccc2c1OCCOCCN(C)C(=O)CN(C)S(=O)(=O)c1ccc(cc1)-c1cnc(N)c(n1)C(=O)N2
GI50 (MCF7 breast): 0.0853 µM | TGI (MCF7 breast): > 100 µM | GI50 (CAKI-1 renal): 2.35 µM | TGI (CAKI-1 renal): > 100 µM | GI50 (SF-295 CNS): 1.77 µM | TGI (SF-295 CNS): > 100 µM | GI50 (A498 renal): 1.82 µM | TGI (A498 renal): 7.34 µM | GI50 (UO-31 renal): > 100 µM | TGI (UO-31 renal): > 100 µM | GI50 (HT29 colon): 2.85 µM | TGI (HT29 colon): > 100 µM | GI50 (TK-10 renal): 2.71 µM | TGI (TK-10 renal): > 100 µM | GI50 (SK-MEL-5 melanoma): 6.63 µM | TGI (SK-MEL-5 melanoma): > 100 µM | GI50 (NCI/ADR-RES ovarian): > 100 µM | TGI (NCI/ADR-RES ovarian): > 100 µM | GI50 (786-0 renal): 0.669 µM | TGI (786-0 renal): 2.09 µM | GI50 (HCT-15 colon): 6.97 µM | TGI (HCT-15 colon): > 100 µM | GI50 (NCI-H23 lung): 0.299 µM | TGI (NCI-H23 lung): 3.47 µM

c1ccc(C2=NOC3(c4ccccc4)CC(c4cccs4)Sc4ccccc4N23)cc1 (centres undefined)
GI50 (K-562 leukemia): 23.6 µM | GI50 (U251 CNS): 7.58 µM | GI50 (MOLT-4 leukemia): 8.75 µM | GI50 (UO-31 renal): 89.1 µM | GI50 (HCT-116 colon): 28.2 µM | GI50 (HT29 colon): 65.5 µM | GI50 (OVCAR-5 ovarian): 35.1 µM

CN1CCc2cc3c(cc2C1O)OCO3 (centres undefined)
TGI (K-562 leukemia): > 100 µM | GI50 (OVCAR-8 ovarian): 21.6 µM and > 100 µM | TGI (OVCAR-8 ovarian): 51.6 µM and > 100 µM | GI50 (IGROV1 ovarian): 10.7 µM and > 100 µM | TGI (IGROV1 ovarian): 33.2 µM and > 100 µM | TGI (KM12 colon): 22.5 µM and > 100 µM | TGI (U251 CNS): 22.9 µM and > 100 µM | GI50 (PC-3 prostate): 17 µM and > 100 µM | TGI (PC-3 prostate): 42.7 µM and > 100 µM | TGI (MCF7 breast): 23.3 µM and > 100 µM | TGI (UACC-257 melanoma): 10.8 µM and > 100 µM | GI50 (HCC-2998 colon): 18.8 µM and > 100 µM | TGI (HCC-2998 colon): 36.9 µM and > 100 µM | GI50 (HOP-92 NSCLC): 20.8 µM and > 100 µM | TGI (HOP-92 NSCLC): 39 µM and > 100 µM | GI50 (CAKI-1 renal): 14.8 µM and > 100 µM | TGI (CAKI-1 renal): 30.6 µM and > 100 µM | GI50 (A549 NSCLC): 15.9 µM and > 100 µM | TGI (A549 NSCLC): 31.6 µM and > 100 µM | GI50 (MOLT-4 leukemia): 23.4 µM and > 100 µM | TGI (MOLT-4 leukemia): 81.6 µM and > 100 µM | GI50 (SF-295 CNS): 26.7 µM and > 100 µM | TGI (SF-295 CNS): > 100 µM | GI50 (RXF 393 renal): 17.9 µM and > 100 µM | TGI (RXF 393 renal): 35.2 µM and > 100 µM | GI50 (A498 renal): 22.9 µM and > 100 µM | TGI (A498 renal): 39.9 µM and > 100 µM | GI50 (UO-31 renal): 17.4 µM and > 100 µM | TGI (UO-31 renal): 37.4 µM and > 100 µM | GI50 (HCT-116 colon): 19.2 µM and > 100 µM | TGI (HCT-116 colon): 36.2 µM and > 100 µM | TGI (SK-MEL-2 melanoma): 13 µM and > 100 µM | GI50 (HT29 colon): 21.4 µM and > 100 µM | TGI (HT29 colon): 47.1 µM and > 100 µM | TGI (HS 578T breast): 82.3 µM and > 100 µM | GI50 (ACHN renal): 19.2 µM and > 100 µM | TGI (ACHN renal): 36.2 µM and > 100 µM | GI50 (SW-620 colon): 16.6 µM and > 100 µM | TGI (SW-620 colon): 33.8 µM and > 100 µM | GI50 (DU-145 prostate): 16.7 µM and > 100 µM | TGI (DU-145 prostate): 30.8 µM and > 100 µM | GI50 (CCRF-CEM leukemia): 10.1 µM and > 100 µM | TGI (CCRF-CEM leukemia): > 100 µM | TGI (RPMI-8226 leukemia): > 100 µM | GI50 (SNB-19 CNS): 34.6 µM and > 100 µM | TGI (SNB-19 CNS): > 100 µM | GI50 (LOX IMVI melanoma): 17.4 µM and > 100 µM | TGI (LOX IMVI melanoma): 40.3 µM and > 100 µM | GI50 (TK-10 renal): 19.7 µM and > 100 µM | TGI (TK-10 renal): 39.6 µM and > 100 µM | TGI (OVCAR-4 ovarian): 13.7 µM and > 100 µM | TGI (SF-268 CNS): 30.8 µM and > 100 µM | GI50 (OVCAR-5 ovarian): 19 µM and > 100 µM | TGI (OVCAR-5 ovarian): 33.3 µM and > 100 µM | GI50 (SK-OV-3 ovarian): 17.5 µM and > 100 µM | TGI (SK-OV-3 ovarian): 31.7 µM and > 100 µM | GI50 (NCI/ADR-RES ovarian): 23.5 µM and > 100 µM | TGI (NCI/ADR-RES ovarian): 59.5 µM and > 100 µM | GI50 (COLO 205 colon): 13.5 µM and > 100 µM | TGI (COLO 205 colon): 31.8 µM and > 100 µM | GI50 (EKVX NSCLC): 17.8 µM and > 100 µM | TGI (EKVX NSCLC): 36.8 µM and > 100 µM | TGI (SNB-75 CNS): 17.9 µM and > 100 µM | TGI (SK-MEL-28 melanoma): 22.3 µM and > 100 µM | GI50 (786-0 renal): 17.6 µM and > 100 µM | TGI (786-0 renal): 34.5 µM and > 100 µM | TGI (SR leukemia): > 100 µM | GI50 (HCT-15 colon): 20.8 µM and > 100 µM | TGI (HCT-15 colon): 45 µM and > 100 µM | GI50 (SN12C renal): 20.4 µM and > 100 µM | TGI (SN12C renal): 41.4 µM and > 100 µM | TGI (MDA-MB-435): 11.9 µM and > 100 µM | GI50 (MDA-MB-231 breast): 17.6 µM and > 100 µM | TGI (MDA-MB-231 breast): 35 µM and > 100 µM | GI50 (SF-539 CNS): 12.8 µM and > 100 µM | TGI (SF-539 CNS): 29.4 µM and > 100 µM | GI50 (M14 melanoma): 16.7 µM and > 100 µM | TGI (M14 melanoma): 37.8 µM and > 100 µM | TGI (NCI-H23 lung): 32.1 µM and > 100 µM | GI50 (HL-60(TB) leukemia): 28.8 µM and > 100 µM | TGI (HL-60(TB) leukemia): 69.9 µM and > 100 µM | GI50 (HOP-62 NSCLC): 18 µM and > 100 µM | TGI (HOP-62 NSCLC): 36.2 µM and > 100 µM
